Data published in the NIST ThermoML archive (doi:10.1021/je200668a).
Where “and” joins values, the source holds several entries; their conditions need not be identical. Identical values can stand only once.

Conditions: Liquid, Pulse Transmission

O [water]
Conditions	speed of sound
288.13 K, 250900 kPa	1878.5 m/s
288.13 K, 300400 kPa	1955.1 m/s
288.13 K, 701000 kPa	2453.9 m/s
288.14 K, 150300 kPa	1718.5 m/s
288.15 K, 50900 kPa	1550.1 m/s
288.15 K, 349200 kPa	2025.9 m/s
288.15 K, 499800 kPa	2225.2 m/s
288.16 K, 99800 kPa	1631.8 m/s
288.16 K, 200200 kPa	1800.9 m/s
288.17 K, 99700 kPa	1633.2 m/s
288.17 K, 401300 kPa	2098 m/s
288.17 K, 561300 kPa	2300.1 m/s
288.17 K, 640700 kPa	2391.2 m/s
297.74 K, 702200 kPa	2448.7 m/s
297.78 K, 653200 kPa	2402.2 m/s
297.79 K, 250300 kPa	1895.5 m/s
297.79 K, 549700 kPa	2286.1 m/s
297.8 K, 499500 kPa	2225.4 m/s
297.82 K, 601700 kPa	2346.1 m/s
297.83 K, 300300 kPa	1967.2 m/s
297.84 K, 200200 kPa	1819.5 m/s
297.88 K, 50600 kPa	1580.3 m/s
297.88 K, 151000 kPa	1743.2 m/s
297.89 K, 400300 kPa	2101.3 m/s
297.9 K, 100 kPa	1493.8 m/s
297.9 K, 450500 kPa	2165.2 m/s
297.99 K, 99500 kPa	1660.6 m/s
298.05 K, 349200 kPa	2035.4 m/s
298.07 K, 699900 kPa	2450.3 m/s
298.09 K, 659800 kPa	2412.6 m/s
298.1 K, 599200 kPa	2344.5 m/s
298.11 K, 551300 kPa	2287 m/s
298.12 K, 350600 kPa	2038.7 m/s
298.15 K, 400500 kPa	2103.8 m/s
298.15 K, 500000 kPa	2229.8 m/s
298.16 K, 200800 kPa	1821.6 m/s
298.16 K, 300500 kPa	1968.4 m/s
298.18 K, 450300 kPa	2167.6 m/s
298.2 K, 50100 kPa	1580.4 m/s
298.24 K, 400400 kPa	2102.3 m/s
298.27 K, 150700 kPa	1743.9 m/s
298.28 K, 350900 kPa	2038.4 m/s
298.29 K, 249200 kPa	1894.6 m/s
298.3 K, 150800 kPa	1745 m/s
298.3 K, 299000 kPa	1965.7 m/s
298.31 K, 100400 kPa	1662.8 m/s
298.31 K, 250700 kPa	1897.4 m/s
298.34 K, 50200 kPa	1580.9 m/s
298.34 K, 199800 kPa	1820.7 m/s
298.35 K, 100 kPa	1492.8 m/s
298.36 K, 100400 kPa	1664.2 m/s
298.37 K, 100 kPa	1492.2 m/s
298.38 K, 699000 kPa	2448 m/s
298.41 K, 651700 kPa	2400.7 m/s
298.42 K, 449900 kPa	2165.5 m/s
298.43 K, 499700 kPa	2225.8 m/s
298.43 K, 549200 kPa	2287.7 m/s
298.45 K, 601800 kPa	2347.7 m/s
308.06 K, 400400 kPa	2112.6 m/s
308.07 K, 449300 kPa	2173.3 m/s
308.08 K, 300500 kPa	1983.1 m/s
308.09 K, 349400 kPa	2048.7 m/s
308.09 K, 400000 kPa	2112.1 m/s
308.09 K, 499500 kPa	2230.5 m/s
308.09 K, 559700 kPa	2301.4 m/s
308.09 K, 650800 kPa	2402.2 m/s
308.09 K, 703600 kPa	2441.6 m/s
308.1 K, 250500 kPa	1913.4 m/s
308.1 K, 299900 kPa	1983.2 m/s
308.1 K, 350900 kPa	2048.9 m/s
308.1 K, 601700 kPa	2349.8 m/s
308.1 K, 698500 kPa	2446.7 m/s
308.11 K, 100 kPa	1515.3 m/s
308.11 K, 160100 kPa	1781.2 m/s
308.11 K, 650700 kPa	2402.3 m/s
308.12 K, 149900 kPa	1766.1 m/s
308.12 K, 200400 kPa	1840.6 m/s
308.12 K, 200700 kPa	1840.1 m/s
308.12 K, 299900 kPa	1984.1 m/s
308.12 K, 400700 kPa	2110.8 m/s
308.13 K, 51000 kPa	1606 m/s
308.13 K, 349800 kPa	2049.7 m/s
308.13 K, 599600 kPa	2344.5 m/s
308.14 K, 99700 kPa	1690.4 m/s
308.14 K, 150300 kPa	1766.1 m/s
308.14 K, 449900 kPa	2171.7 m/s
308.14 K, 701600 kPa	2447.4 m/s
308.15 K, 100 kPa	1514.3 m/s and 1514.1 m/s
308.15 K, 250800 kPa	1913.1 m/s
308.15 K, 450900 kPa	2174.9 m/s
308.15 K, 499400 kPa	2232.5 m/s
308.16 K, 111000 kPa	1706.1 m/s
308.16 K, 639800 kPa	2388.9 m/s
308.17 K, 50300 kPa	1604.9 m/s
308.17 K, 99800 kPa	1690 m/s
308.17 K, 200300 kPa	1839.8 m/s
308.17 K, 549700 kPa	2292.4 m/s
308.19 K, 250500 kPa	1913.9 m/s
308.19 K, 549600 kPa	2291 m/s
308.21 K, 499700 kPa	2232.3 m/s
308.22 K, 50600 kPa	1605.5 m/s
308.22 K, 599600 kPa	2346.6 m/s
318.02 K, 200600 kPa	1860.6 m/s
318.02 K, 350800 kPa	2062 m/s
318.06 K, 399700 kPa	2122.5 m/s
318.07 K, 99500 kPa	1705.7 m/s
318.09 K, 349600 kPa	2062.1 m/s
318.1 K, 200400 kPa	1860.8 m/s
318.1 K, 299400 kPa	1995.8 m/s
318.1 K, 300100 kPa	1998.9 m/s
